Test: Oral absorption test: concentration of hydrolyzed carbapenem compound (A) in plasma after oral administration
Format: in vivo
Conditions: mice, 100 mg/kg orally, hydrolyzed carbapenem compound (A) by HPLC
Protocol: The compound of the present invention (100 mg/kg, compound of Example 13) was orally administered to mice (3 per group) and the concentration of hydrolyzed carbapenem compound (A) in plasma was determined at 0.25, 0.5, 1.0, 2.0 and 3.0 hours later by HPLC.
The compound of the present invention (100 mg/kg, compound of Example 15) was orally administered to mice (3 per group) and the concentration of hydrolyzed carbapenem compound (A) in plasma was determined at 0.25, 0.5, 1.0, 2.0 and 3.0 hours later by HPLC.

Row | Average concentration in plasma (0.25 hr) [µg/mL] | Average concentration in plasma (0.5 hr) [µg/mL] | Average concentration in plasma (1.0 hr) [µg/mL] | Average concentration in plasma (2.0 hr) [µg/mL] | Average concentration in plasma (3.0 hr) [µg/mL] | Compound
1 | 8.6 | 10.1 | 4.8 | 1.4 | 0.3 | CC(C)C(=O)OCOC(=O)N1C[C@@H](SC2=C(C(=O)OCOC(=O)C(C)(C)C)N3C(=O)[C@H]([C@@H](C)O)[C@H]3[C@H]2C)C[C@H]1C(=O)N(C)C [Example 15, pivaloyloxymethyl (1R,5S,6S)-2-[(3S,5S)-(5-N,N-dimethylaminocarbonyl-1-isobutyryloxymethyloxycarbonyl)pyrrolidin-3-ylthio]-6-[(1R)-1-hydroxyethyl]-1-methylcarbapen-2-em-3-carboxylate]
2 | 9.5 | 4.8 | 1.9 | 0.6 | 0.2 | CCC(=O)OCOC(=O)N1C[C@@H](SC2=C(C(=O)OCOC(=O)C(C)(C)C)N3C(=O)[C@H]([C@@H](C)O)[C@H]3[C@H]2C)C[C@H]1C(=O)N(C)C [Example 13]

From US6410525B1, “Carbapenem derivatives, utilization thereof and intermediate compounds of the same” (Kyoto Pharmaceutical Industries, Ltd., priority 1998, dated 2002)
